Reference: paper PMC6556873, “Rapid Covalent-Probe Discovery by Electrophile-Fragment Screening” (Journal of the American Chemical Society, 2019)
Read-outs that look alike come from different tables or passages of the source.

Columns and labels:
in vitro [1] = assay: in vitro; parameters: species or system HB2, HEK293; settings: human, ccd841 cells
NNMT (hNNMT) = target: T1, NNMT (hNNMT) (Homo sapiens, UniProt P40261); parameters: Intact protein LC/MS covalent labelling, fragments in pools of five, 200 uM each, 4 °C; settings: 24 h, 4 °C, pool of five; 200 µM; covalent
T1 construct: wild type, N-terminal His6 tag kept (no cleavage described), E. coli, construct 31248 Da
T1 sequence (P40261 1-264): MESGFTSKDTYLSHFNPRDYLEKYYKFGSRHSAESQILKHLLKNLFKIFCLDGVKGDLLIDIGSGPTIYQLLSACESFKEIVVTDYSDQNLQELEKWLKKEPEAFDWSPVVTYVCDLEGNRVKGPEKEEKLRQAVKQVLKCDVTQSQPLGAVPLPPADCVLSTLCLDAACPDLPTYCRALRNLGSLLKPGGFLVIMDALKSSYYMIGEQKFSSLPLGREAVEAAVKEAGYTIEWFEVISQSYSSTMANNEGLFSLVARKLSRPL

NUDT7 = target: T2, NUDT7 (Homo sapiens, UniProt P0C024); parameters: Intact protein LC/MS covalent labelling, fragments in pools of five, 200 uM each, 4 °C; settings: 24 h, 4 °C, pool of five; 200 µM; covalent
T2 construct: residues 14-235, E. coli, pNIC28-Bsa4, N-terminal His6 tag removed by TEV, construct 26672 Da
T2 sequence (P0C024 14-235): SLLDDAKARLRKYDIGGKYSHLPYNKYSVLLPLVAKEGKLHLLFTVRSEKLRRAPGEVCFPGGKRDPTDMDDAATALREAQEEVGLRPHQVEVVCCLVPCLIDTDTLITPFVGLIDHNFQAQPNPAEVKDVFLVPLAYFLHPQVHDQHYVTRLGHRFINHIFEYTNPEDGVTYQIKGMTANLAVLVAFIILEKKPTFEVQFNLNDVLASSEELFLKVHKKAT

OTUB2 (OTUB2A) = target: T3, OTUB2 (OTUB2A) (Homo sapiens, UniProt Q96DC9); parameters: Intact protein LC/MS covalent labelling, fragments in pools of five, 200 uM each, 4 °C; settings: 24 h, 4 °C, pool of five; 200 µM; covalent
T3 construct: full length residues 1-234, E. coli BL21(DE3)-R3, His tag removed by TEV, construct 27312 Da
T3 sequence (Q96DC9 1-234): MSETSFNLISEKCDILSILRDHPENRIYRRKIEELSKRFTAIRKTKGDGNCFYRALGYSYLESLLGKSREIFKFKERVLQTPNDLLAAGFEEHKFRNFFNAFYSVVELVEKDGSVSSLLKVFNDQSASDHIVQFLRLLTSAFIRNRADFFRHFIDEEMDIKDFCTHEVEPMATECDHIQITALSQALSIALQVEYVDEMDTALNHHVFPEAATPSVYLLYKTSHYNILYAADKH

BSA = target: T4, BSA (Bos taurus, UniProt P02769); parameters: Intact protein LC/MS covalent labelling, fragments in pools of five, 200 uM each, 4 °C; settings: 24 h, 4 °C, pool of five; 200 µM; covalent
T4 construct: gene ALB
T4 sequence (P02769 whole entry, the tested form may be a part): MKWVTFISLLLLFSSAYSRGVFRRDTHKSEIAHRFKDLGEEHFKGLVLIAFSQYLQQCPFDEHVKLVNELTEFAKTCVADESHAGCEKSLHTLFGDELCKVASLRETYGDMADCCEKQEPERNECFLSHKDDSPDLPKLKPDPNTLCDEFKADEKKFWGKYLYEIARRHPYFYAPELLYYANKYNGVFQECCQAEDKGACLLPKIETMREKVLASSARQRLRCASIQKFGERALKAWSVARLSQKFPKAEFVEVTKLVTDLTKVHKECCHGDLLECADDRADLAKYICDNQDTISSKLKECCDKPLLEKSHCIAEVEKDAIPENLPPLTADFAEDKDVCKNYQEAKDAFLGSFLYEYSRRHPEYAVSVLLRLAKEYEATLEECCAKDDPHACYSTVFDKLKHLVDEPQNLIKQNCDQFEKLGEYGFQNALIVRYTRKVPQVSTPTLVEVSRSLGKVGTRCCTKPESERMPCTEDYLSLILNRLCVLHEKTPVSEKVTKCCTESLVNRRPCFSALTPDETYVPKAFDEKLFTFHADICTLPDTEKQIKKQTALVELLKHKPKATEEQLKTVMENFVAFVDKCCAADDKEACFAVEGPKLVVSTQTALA

PCAF = target: T5, PCAF (Homo sapiens, UniProt Q92831); parameters: Intact protein LC/MS covalent labelling, fragments in pools of five, 200 uM each, 4 °C; settings: 24 h, 4 °C, pool of five; 200 µM; covalent
T5 construct: gene KAT2B
T5 sequence (Q92831 whole entry, the tested form may be a part): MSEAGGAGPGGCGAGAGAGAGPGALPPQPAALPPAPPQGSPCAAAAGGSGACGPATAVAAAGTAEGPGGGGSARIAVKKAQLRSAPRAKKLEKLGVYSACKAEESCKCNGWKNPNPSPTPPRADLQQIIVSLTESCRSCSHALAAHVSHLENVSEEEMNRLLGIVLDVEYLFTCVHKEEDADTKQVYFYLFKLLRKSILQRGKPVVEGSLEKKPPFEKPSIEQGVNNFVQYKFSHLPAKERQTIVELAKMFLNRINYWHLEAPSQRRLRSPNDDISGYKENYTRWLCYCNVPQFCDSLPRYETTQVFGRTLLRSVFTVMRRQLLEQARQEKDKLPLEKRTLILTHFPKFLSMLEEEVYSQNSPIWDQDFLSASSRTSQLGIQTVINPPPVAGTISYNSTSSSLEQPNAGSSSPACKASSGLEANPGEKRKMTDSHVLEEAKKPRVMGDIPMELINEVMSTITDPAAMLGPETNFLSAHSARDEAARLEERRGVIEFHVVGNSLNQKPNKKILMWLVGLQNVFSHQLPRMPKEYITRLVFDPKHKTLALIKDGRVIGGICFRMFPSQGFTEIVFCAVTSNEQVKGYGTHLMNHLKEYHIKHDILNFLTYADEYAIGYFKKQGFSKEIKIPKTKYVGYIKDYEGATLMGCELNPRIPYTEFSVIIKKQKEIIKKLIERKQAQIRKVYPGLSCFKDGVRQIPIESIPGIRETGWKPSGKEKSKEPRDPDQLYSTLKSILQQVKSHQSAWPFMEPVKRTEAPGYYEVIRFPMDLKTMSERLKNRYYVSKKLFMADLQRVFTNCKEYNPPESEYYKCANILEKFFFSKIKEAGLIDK

in vitro [2] = assay: in vitro; parameters: species or system CCD841, HEK293; settings: human, hb2 cells, read-out: HB-2 Cells Viability (%)
in vitro [3] = assay: in vitro; parameters: species or system HB2, CCD841; settings: human, hek293 cells

Row | NNMT (NNMT (hNNMT)) | NUDT7 (NUDT7) | OTUB2 (OTUB2 (OTUB2A)) | BSA (BSA) | PCAF (PCAF) | SMILES | viability at 48 h, 10 µM (in vitro [1]) [%] | viability at 48 h, 10 µM (in vitro [2]) [%] | viability at 48 h, 10 µM (in vitro [3]) [%]
1 | 0 | 0 | 0.18 | 0 | 0 | C=CC(=O)N1CC(OC(=O)NC(C)C)C1 [PCM-0102728] | 108 | 99.7 | 110
2 | 0 | 0 | 0.18 | 0 | 0 | C=CC(=O)N1CCCn2c(cc3ccccc32)C1 [PCM-0102730] | 92.2 | 104 | 85
3 | 0 | 0 | 0 | 0 | 0 | C=CC(=O)NC1CCN(c2ccccc2C(F)(F)F)C1 (centres unmarked) [PCM-0102731] | 104 | 100 | 69.7
4 | 0.22 | 0 | 0 | 0 | 0 | C=CC(=O)N1CCc2ccccc21 [PCM-0102732] | 105 | 93.4 | 72.5
5 | 0.13 | 0 | 0 | 0 | 0 | CC(C)(C)c1nnc(NC(=O)CCl)s1 [PCM-0102736] | 67.5 | 80.1 | 81.5
6 | 0 | 0 | 0.54 | 0 | 0 | Cc1cccc(C(=O)NNC(=O)CCl)c1 [PCM-0102737] | 80 | 82.1 | 83.7
7 | 0 | 0 | 0 | 0 | 0 | CN(CC(=O)N1CCOCC1)C(=O)CCl [PCM-0102743] | 99 | 101 | 97.6
8 | 0.17 | 0 | 0.1 | 0 | 0 | Cc1ccc(S(N)(=O)=O)cc1NC(=O)CCl [PCM-0102744] | 61.4 | 54.4 | 19.7
9 | 0.87 | 0 | 0.64 | 0 | 0 | O=C(CCl)Nc1oncc1-c1ccccc1 [PCM-0102746] | 71.8 | 72.1 | 73.3
10 | 0 | 0 | 0 | 0 | 0 | CN(Cc1cccc(F)c1)C(=O)CCl [PCM-0102747] | 73.1 | 64.5 | 46.1
11 | 0 | 0 | 0 | 0 | 0 | O=C(CCl)N1CCOCC1 [PCM-0102749] | 109 | 98.7 | 97.6
12 | 0 | 0 | 0 | 0 | 0 | O=C(CCl)N1CCCCCC1 [PCM-0102751] | 85.6 | 99.5 | 73.7
13 | 0 | 0 | 0 | 0 | 0 | C=CC(=O)N(C)CC1CCn2ccnc2C1 (centres unmarked) [PCM-0102752] | 122 | 97.7 | 88.4
14 | 0.55 | 0 | 0.23 | 0 | 0 | O=C(CCl)NC(=O)NCc1cccs1 [PCM-0102753] | 71.1 | 61.5 | 55.8
15 | 0 | 0 | 0 | 0 | 0 | CC(NC(=O)CCl)C(=O)N(C)C (centres unmarked) [PCM-0102754] | 101 | 96 | 83.7
16 | 0 | 0.17 | 0 | 0 | 0 | O=C(CCl)N(c1ccccc1)C1CCS(=O)(=O)C1 (centres unmarked) [PCM-0102755] | 20.4 | 28.5 | 16.7
17 | 0 | 0.1 | 0.64 | 0 | 0 | COc1ccc(Cl)cc1C(=O)NNC(=O)CCl [PCM-0102763] | 13.4 | 73.6 | 25.1
18 | 0 | 0 | 0 | 0.1 | 0 | C=CC(=O)N1CCCc2c([nH]c3c(F)cccc23)C1 [PCM-0102767] | 96.6 | 89.2 | 96
19 | 0 | 0.09 | 0 | 0 | 0 | CC(C)(C)C(NC(=O)CCl)c1cccs1 (centres unmarked) [PCM-0102773] | 72.8 | 86.9 | 63.6
20 | 0 | 0 | 0.23 | 0 | 0 | O=C(CCl)NNC(=O)C1CC1 [PCM-0102776] | 88.4 | 93.1 | 90.2
21 | 0.61 | 0 | 0 | 0 | 0 | O=C(CCl)N1CCc2ccc([N+](=O)[O-])cc21 [PCM-0102777] | 2.6 | 1.7 | 17.9
22 | 0 | 0 | 0.3 | 0 | 0 | O=C(CCl)Nc1nnn[nH]1 [PCM-0102778] | 102 | 102 | 120
23 | 0.24 | 0 | 0 | 0 | 0 | O=C(CCl)Nc1nnc(CC(F)(F)F)o1 [PCM-0102779] | 99.9 | 106 | 102
24 | 0 | 0 | 0 | 0 | 0 | O=C(CCl)N1CCC(C(=O)N2CCCCCC2)CC1 [PCM-0102781] | 92.5 | 90.6 | 63.8
25 | 0.71 | 0.77 | 0.07 | 0 | 0 | O=C(CCl)Nc1nc(-c2cccs2)cs1 [PCM-0102784] | 84.9 | 39.8 | 41.3
26 | 0 | 0 | 0.09 | 0 | 0 | COC(=O)NC(=O)CCl [PCM-0102791] | 123 | 106 | 94.3
27 | 0 | 0 | 0 | 0 | 0 | O=C(CCl)NC(=O)c1ccc[nH]1 [PCM-0102795] | 100 | 96.2 | 149
28 | 0 | 0.15 | 0 | 0 | 0 | O=C(CCl)Nc1cccc(Cl)c1Cl [PCM-0102797] | 72.2 | 44.2 | 40.9
